According to ChEMBL document CHEMBL5291721, “A preclinical secondary pharmacology resource illuminates target-adverse drug reaction associations of marketed drugs” (Nat Commun, 2023):

Key:
Estrogen receptor = target: T1, Estrogen receptor (Homo sapiens, UniProt P03372)
T1 sequence (P03372 whole entry): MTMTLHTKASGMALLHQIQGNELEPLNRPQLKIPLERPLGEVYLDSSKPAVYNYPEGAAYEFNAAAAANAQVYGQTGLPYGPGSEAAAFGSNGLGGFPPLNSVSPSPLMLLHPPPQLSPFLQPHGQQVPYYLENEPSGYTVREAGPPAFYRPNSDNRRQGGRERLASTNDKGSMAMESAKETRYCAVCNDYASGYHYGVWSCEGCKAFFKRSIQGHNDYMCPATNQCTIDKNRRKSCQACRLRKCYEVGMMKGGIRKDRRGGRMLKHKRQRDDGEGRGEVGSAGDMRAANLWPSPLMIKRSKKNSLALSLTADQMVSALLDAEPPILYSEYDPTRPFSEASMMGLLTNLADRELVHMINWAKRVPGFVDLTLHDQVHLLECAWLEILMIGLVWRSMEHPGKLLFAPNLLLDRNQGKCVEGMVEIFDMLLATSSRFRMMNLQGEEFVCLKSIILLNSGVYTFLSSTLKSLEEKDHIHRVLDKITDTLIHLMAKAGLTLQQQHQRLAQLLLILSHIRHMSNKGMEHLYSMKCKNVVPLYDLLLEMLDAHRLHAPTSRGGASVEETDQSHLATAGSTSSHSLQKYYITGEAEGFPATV

[1] = target: Voltage-gated inwardly rectifying potassium channel KCNH2 (Homo sapiens, UniProt Q12809); assay type: functional; conditions: read-out: AC50
[2] = target: T2, 5-hydroxytryptamine receptor 1A (Homo sapiens, UniProt P08908); assay type: functional, cell-based
T2 sequence (P08908 whole entry): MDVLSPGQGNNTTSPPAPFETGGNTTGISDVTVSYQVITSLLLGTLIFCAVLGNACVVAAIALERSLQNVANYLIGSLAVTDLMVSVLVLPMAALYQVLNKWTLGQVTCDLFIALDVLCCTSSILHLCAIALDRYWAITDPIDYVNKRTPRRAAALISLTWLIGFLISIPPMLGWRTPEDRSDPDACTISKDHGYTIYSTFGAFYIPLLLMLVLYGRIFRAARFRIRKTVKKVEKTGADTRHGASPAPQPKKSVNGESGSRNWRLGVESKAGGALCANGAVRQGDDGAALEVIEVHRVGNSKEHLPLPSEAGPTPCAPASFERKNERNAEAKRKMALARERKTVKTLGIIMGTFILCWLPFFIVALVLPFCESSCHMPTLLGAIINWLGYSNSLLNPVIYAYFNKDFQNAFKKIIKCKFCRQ

D(3) dopamine receptor = D(3) dopamine receptor (Homo sapiens, UniProt P35462)
Thromboxane A2 receptor = target: T3, Thromboxane A2 receptor (Homo sapiens, UniProt P21731)
T3 sequence (P21731 whole entry): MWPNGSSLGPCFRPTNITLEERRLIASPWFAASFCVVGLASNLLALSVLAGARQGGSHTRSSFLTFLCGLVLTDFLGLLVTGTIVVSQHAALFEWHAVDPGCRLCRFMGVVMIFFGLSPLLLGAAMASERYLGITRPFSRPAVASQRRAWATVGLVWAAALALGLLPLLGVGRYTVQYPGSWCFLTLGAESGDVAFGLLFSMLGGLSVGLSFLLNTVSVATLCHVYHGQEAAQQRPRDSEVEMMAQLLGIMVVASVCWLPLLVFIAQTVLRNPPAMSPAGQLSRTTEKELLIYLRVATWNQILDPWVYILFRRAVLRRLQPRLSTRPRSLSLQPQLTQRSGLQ

[3] = target: 5-hydroxytryptamine receptor 2B (Homo sapiens, UniProt P41595); assay type: functional, cell-based
[4] = target: T4, Alpha-1A adrenergic receptor (Homo sapiens, UniProt P35348); assay type: functional, cell-based
T4 sequence (P35348 whole entry): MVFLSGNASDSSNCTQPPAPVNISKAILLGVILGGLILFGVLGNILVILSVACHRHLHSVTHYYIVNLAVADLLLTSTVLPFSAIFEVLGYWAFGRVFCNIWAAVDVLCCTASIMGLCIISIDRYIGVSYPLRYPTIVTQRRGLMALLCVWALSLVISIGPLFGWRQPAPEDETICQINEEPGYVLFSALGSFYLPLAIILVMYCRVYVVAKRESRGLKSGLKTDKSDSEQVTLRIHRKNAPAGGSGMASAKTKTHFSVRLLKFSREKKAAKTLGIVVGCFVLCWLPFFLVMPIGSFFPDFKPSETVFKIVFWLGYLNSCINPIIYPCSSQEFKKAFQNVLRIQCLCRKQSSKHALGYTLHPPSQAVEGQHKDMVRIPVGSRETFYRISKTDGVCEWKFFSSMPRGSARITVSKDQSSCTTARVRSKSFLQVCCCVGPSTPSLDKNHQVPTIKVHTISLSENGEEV

[5] = target: T5, Alpha-2C adrenergic receptor (Homo sapiens, UniProt P18825); assay type: functional
T5 sequence (P18825 whole entry): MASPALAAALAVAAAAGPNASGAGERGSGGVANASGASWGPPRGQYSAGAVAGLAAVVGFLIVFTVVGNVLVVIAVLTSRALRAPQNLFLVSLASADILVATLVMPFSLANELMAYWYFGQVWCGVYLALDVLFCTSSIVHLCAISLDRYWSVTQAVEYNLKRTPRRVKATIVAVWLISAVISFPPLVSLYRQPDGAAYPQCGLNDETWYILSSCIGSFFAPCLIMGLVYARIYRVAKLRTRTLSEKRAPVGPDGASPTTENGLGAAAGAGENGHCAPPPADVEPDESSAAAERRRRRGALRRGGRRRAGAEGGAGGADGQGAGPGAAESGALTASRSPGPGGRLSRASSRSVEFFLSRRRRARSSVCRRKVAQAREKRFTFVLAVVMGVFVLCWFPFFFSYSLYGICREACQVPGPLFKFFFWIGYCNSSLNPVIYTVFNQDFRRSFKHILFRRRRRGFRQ

[6] = target: 3',5'-cyclic-AMP phosphodiesterase 4D (Homo sapiens, UniProt Q08499); assay type: functional
[7] = target: Gamma-aminobutyric acid receptor subunit alpha-1 (Rattus norvegicus, UniProt P62813)
Further: assay procedure not described here.

D(3) dopamine receptor, sequence (P35462 whole entry): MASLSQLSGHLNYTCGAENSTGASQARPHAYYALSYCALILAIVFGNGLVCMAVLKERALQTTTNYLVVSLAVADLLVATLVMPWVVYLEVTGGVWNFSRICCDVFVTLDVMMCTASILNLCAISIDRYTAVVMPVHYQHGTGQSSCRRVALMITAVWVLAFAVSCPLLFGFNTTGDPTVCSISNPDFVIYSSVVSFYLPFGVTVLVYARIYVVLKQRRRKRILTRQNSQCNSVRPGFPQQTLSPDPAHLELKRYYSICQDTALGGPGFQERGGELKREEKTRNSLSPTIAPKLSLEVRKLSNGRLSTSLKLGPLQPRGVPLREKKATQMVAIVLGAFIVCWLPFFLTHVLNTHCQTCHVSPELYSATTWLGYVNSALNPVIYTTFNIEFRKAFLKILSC
3',5'-cyclic-AMP phosphodiesterase 4D, sequence (Q08499 whole entry): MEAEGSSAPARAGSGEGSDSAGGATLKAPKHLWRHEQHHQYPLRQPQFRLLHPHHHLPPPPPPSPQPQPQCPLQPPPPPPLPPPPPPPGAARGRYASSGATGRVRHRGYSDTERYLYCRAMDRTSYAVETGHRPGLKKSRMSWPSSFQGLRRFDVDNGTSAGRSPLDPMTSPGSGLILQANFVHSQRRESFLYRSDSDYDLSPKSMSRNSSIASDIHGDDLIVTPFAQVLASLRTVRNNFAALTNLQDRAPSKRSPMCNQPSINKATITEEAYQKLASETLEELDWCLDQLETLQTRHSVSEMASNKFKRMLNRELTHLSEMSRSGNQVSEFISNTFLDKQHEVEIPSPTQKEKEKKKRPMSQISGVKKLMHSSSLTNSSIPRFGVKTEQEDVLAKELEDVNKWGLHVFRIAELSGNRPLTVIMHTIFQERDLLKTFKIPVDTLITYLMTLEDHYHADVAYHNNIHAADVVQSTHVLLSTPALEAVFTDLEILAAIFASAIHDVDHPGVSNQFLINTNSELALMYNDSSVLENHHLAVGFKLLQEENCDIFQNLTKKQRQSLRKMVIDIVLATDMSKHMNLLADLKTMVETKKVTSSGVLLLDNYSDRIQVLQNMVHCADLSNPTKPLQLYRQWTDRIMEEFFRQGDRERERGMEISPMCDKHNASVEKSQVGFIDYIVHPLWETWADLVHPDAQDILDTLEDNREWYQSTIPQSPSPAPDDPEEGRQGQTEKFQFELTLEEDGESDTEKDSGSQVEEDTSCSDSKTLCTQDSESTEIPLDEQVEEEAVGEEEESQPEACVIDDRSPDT
5-hydroxytryptamine receptor 2B, sequence (P41595 whole entry): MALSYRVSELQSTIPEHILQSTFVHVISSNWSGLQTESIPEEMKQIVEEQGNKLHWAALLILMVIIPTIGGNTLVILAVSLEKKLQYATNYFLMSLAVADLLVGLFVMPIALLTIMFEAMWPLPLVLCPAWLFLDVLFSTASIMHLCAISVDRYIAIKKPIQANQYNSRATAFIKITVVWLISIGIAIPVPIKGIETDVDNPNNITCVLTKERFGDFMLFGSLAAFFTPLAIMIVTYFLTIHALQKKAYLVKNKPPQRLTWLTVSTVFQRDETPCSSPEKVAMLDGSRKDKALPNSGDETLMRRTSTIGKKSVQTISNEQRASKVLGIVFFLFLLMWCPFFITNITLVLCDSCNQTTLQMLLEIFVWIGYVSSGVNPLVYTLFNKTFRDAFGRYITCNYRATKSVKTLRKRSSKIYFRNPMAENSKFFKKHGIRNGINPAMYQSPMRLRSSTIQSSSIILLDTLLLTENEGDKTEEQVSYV
Voltage-gated inwardly rectifying potassium channel KCNH2, sequence (Q12809 whole entry): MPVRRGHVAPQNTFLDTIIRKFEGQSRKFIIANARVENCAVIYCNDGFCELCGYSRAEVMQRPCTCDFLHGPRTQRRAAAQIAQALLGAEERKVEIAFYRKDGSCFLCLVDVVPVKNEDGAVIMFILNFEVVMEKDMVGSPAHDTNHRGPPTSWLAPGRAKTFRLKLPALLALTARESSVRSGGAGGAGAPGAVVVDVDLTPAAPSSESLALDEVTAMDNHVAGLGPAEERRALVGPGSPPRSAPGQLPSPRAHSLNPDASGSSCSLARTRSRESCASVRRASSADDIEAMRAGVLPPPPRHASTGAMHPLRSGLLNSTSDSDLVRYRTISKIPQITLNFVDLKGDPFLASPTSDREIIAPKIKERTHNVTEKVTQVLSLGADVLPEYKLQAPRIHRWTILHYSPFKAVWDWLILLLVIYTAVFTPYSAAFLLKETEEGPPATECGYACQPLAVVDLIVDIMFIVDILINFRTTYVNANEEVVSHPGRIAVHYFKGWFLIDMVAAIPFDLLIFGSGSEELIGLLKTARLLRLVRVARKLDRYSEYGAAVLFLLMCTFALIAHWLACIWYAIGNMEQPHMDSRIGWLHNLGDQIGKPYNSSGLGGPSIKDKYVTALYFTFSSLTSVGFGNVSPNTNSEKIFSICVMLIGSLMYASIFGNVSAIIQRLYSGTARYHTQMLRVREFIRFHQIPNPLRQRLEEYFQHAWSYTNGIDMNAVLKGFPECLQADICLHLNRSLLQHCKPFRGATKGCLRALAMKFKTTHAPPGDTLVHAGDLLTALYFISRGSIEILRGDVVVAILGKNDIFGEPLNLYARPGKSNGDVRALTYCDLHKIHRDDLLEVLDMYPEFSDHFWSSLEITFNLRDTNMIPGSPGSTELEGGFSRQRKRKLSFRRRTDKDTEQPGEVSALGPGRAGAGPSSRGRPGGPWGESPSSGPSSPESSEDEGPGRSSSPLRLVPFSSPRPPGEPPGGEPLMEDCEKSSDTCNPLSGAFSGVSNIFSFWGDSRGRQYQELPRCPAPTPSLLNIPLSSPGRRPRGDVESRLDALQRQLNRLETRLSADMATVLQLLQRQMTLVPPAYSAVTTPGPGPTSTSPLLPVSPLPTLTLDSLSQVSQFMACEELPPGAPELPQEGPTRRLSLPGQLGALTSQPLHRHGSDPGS
Gamma-aminobutyric acid receptor subunit alpha-1, sequence (P62813 whole entry): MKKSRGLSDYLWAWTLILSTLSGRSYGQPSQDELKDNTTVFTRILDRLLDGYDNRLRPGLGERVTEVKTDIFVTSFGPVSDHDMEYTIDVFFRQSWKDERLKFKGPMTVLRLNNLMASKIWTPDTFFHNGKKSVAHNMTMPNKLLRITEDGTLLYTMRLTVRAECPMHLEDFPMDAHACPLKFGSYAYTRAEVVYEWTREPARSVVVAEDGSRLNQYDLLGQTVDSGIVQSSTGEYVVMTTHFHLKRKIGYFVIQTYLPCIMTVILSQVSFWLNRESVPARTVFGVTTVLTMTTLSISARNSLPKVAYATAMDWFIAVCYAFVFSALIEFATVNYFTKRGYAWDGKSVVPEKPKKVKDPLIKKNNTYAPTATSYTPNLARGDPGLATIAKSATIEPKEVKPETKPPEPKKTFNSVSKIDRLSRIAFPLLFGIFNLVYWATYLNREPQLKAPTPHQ

Row | Structure (SMILES) | AC50 (Estrogen receptor) [µM] | AC50 [1] [µM] | AC50 [2] [µM] | AC50 (D(3) dopamine receptor) [µM] | AC50 (Thromboxane A2 receptor) [µM] | AC50 [3] [µM] | AC50 [4] [µM] | AC50 [5] [µM] | AC50 [6] [µM] | AC50 [7] [µM]
1 | COc1cc2c(N)nc(N3CCN(C(=O)OCC(C)(C)O)CC3)nc2c(OC)c1OC [TRIMAZOSIN] | > 30 | 17 | 22 | > 30 | > 30 | > 30 | > 30 | 13 | > 30 | > 30
2 | COc1ccccc1OCCNCC(O)c1ccc(C)c(S(N)(=O)=O)c1 (stereo unspecified) [AMOSULALOL] | > 30 | 15 | 0.16 | 0.12 | > 30 | 1.6 | 0.32 | 2.3 | 6.7 | > 30
3 | COc1ccc2c3c1O[C@H]1[C@@H](O)C=C[C@H]4[C@@H](C2)N(C)CC[C@@]341 [CODEINE] | > 30 | > 30 | > 10 | > 10 | > 30 | > 10 | > 30 | > 10 | 7.2 | > 30
4 | Cc1ccc(-n2nccn2)c(C(=O)N2CCN(c3nc4cc(Cl)ccc4o3)CC[C@H]2C)c1 [SUVOREXANT] | > 30 | 22 | > 30 | > 30 | > 10 | > 30 | > 30 | > 30 | > 30 | > 30
5 | CCC(C(=O)O)c1ccc(N2Cc3ccccc3C2=O)cc1 (stereo unspecified) [INDOBUFEN] | > 30 | > 30 | 1.9 | > 30 | > 30 | > 30 | > 30 | > 30 | > 30 | > 30
6 | CCCC(C)C1(CC)C(=O)NC(=O)NC1=O (stereo unspecified) [PENTOBARBITAL] | > 10 | > 30 | > 10 | > 30 | > 10 | > 10 | > 30 | > 30 | > 30 | –
7 | NCC[C@H](O)C(=O)N[C@@H]1C[C@H](N)[C@@H](O[C@H]2O[C@H](CN)[C@@H](O)[C@H](O)[C@H]2O)[C@H](O)[C@H]1O[C@H]1O[C@H](CO)[C@@H](O)[C@H](N)[C@H]1O [AMIKACIN] | > 10 | > 30 | > 10 | > 30 | > 10 | > 10 | – | > 10 | > 30 | > 10
8 | C[C@H](N)[C@H](O)c1cccc(O)c1 [METARAMINOL] | > 10 | > 30 | > 10 | > 30 | > 10 | 7.4 | – | > 10 | > 30 | > 10
9 | CC(C)OC(=O)CCC/C=C\C[C@@H]1[C@@H](CC[C@@H](O)CCc2ccccc2)[C@H](O)C[C@@H]1O [LATANOPROST] | > 30 | > 30 | > 30 | > 30 | – | > 30 | > 30 | > 30 | > 30 | > 30
10 | Cc1ccc(S(=O)(=O)NC(=O)NN2CC3CCCC3C2)cc1 (stereo unspecified) [GLICLAZIDE] | > 10 | > 30 | > 10 | > 30 | > 10 | > 10 | – | > 30 | > 30 | > 10
11 | CO[C@@H]1[C@@H](O[C@@H]2O[C@H](C)[C@@H](O[C@H]3C[C@@](C)(O)[C@@H](OC(=O)CC(C)C)[C@H](C)O3)[C@H](N(C)C)[C@H]2O)[C@@H](CC=O)C[C@@H](C)[C@@H](O)/C=C/C=C/C[C@@H](C)OC(=O)C[C@H]1OC(C)=O [JOSAMYCIN] | > 10 | > 30 | > 10 | > 30 | > 10 | > 10 | – | > 10 | > 30 | > 10
12 | C=CCC1(C(C)CC)C(=O)NC(=O)NC1=O (stereo unspecified) [TALBUTAL] | > 10 | > 30 | > 10 | > 30 | > 10 | > 10 | – | > 10 | > 30 | > 10
13 | Cc1cc(O)c(C(=O)N[C@@H](C(=O)N[C@@H]2C(=O)N3C(C(=O)O)=C(CSc4nnnn4C)CS[C@H]23)c2ccc(O)cc2)cn1 [CEFPIRAMIDE] | > 30 | > 30 | > 30 | > 30 | > 30 | > 30 | – | > 30 | > 30 | > 30
14 | CC(C)Cn1cnc2c(N)nc3ccccc3c21 [IMIQUIMOD] | > 10 | 28.3 | > 10 | > 30 | > 30 | 13.8 | – | > 10 | 4.03 | > 10
15 | CCC1(CC)C(=O)NCC(C)C1=O (stereo unspecified) [METHYPRYLON] | > 30 | > 30 | > 30 | > 30 | – | > 30 | > 30 | > 30 | > 30 | > 30
16 | CCN1CCN(C(=O)N[C@@H](C(=O)N[C@@H]2C(=O)N3C(C(=O)O)=C(CSc4nnnn4C)CS[C@H]23)c2ccc(O)cc2)C(=O)C1=O [CEFOPERAZONE] | > 30 | > 30 | > 30 | > 30 | – | > 30 | > 30 | > 30 | > 30 | –
17 | C#C[C@]1(O)CC[C@H]2[C@@H]3CCC4=Cc5oncc5C[C@]4(C)[C@H]3CC[C@@]21C [DANAZOL] | > 30 | > 30 | > 10 | > 30 | > 10 | > 10 | > 30 | > 10 | – | > 10
18 | CN1C(=O)C(O)N=C(c2ccccc2)c2cc(Cl)ccc21 (stereo unspecified) [TEMAZEPAM] | > 30 | – | > 10 | > 10 | > 30 | > 10 | > 30 | > 10 | > 30 | > 10
